Experimental data as given in ChEMBL document CHEMBL5532657, “Serendipitous discovery of Class I HDAC inhibitors from rational design of molecular glue degraders targeting HDAC” (Eur J Med Chem, 2024).
pIC50: −log10 of the molar value. Calls of active or inactive are those of the source. No cut-off for these calls is given here.

Legend:
Histone deacetylase 1 [1] = biological target: T1, Histone deacetylase 1 (Homo sapiens, UniProt Q13547); test: Induction of HDAC1 degradation in human RS4-11 cells at 0.5 to 10 uM incubated for 12 hrs by Western blotting analysis; assay type: cell-based; conditions: dose 0.5-10 µM
[2] = biological target: T2, Protein deacetylase HDAC6 (Homo sapiens) (UniProt Q9UBN7); test: Induction of HDAC6 degradation in human RS4-11 cells at 0.5 to 10 uM incubated for 12 hrs by Western blotting analysis; assay type: cell-based; conditions: dose 0.5-10 µM
T2 sequence (whole entry): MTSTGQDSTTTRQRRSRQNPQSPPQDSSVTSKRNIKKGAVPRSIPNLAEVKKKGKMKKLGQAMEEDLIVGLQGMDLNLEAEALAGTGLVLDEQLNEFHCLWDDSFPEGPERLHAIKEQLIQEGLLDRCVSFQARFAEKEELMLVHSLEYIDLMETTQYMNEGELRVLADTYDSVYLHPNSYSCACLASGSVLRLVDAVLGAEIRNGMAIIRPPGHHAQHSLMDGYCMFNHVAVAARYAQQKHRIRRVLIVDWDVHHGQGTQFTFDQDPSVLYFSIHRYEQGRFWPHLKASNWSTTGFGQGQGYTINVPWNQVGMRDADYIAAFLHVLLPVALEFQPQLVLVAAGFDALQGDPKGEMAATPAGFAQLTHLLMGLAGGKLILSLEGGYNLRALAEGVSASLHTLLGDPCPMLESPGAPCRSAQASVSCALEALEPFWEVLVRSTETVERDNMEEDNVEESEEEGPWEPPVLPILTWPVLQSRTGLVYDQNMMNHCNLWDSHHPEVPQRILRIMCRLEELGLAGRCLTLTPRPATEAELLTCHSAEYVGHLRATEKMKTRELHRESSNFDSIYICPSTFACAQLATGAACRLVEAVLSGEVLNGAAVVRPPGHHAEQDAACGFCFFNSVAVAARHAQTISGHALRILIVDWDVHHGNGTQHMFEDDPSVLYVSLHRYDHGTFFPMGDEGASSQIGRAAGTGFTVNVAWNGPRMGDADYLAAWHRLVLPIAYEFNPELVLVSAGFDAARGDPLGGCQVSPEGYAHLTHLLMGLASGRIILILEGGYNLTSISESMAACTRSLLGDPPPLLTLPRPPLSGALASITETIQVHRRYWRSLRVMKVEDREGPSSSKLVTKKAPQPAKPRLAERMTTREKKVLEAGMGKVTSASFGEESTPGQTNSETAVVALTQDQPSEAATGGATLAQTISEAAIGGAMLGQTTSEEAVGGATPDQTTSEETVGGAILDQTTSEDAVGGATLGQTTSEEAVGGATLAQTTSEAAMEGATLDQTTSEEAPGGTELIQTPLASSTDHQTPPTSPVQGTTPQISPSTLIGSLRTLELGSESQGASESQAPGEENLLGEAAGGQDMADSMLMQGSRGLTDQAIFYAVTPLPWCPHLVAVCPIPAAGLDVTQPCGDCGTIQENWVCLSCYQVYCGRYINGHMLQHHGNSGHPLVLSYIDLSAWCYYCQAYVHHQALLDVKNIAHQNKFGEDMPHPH

[3] = biological target: DNA-binding protein Ikaros (Homo sapiens) (UniProt Q13422); test: Induction of IKZF1 degradation in human RS4-11 cells at 1 to 10 uM by Western blotting analysis; assay type: cell-based; conditions: dose 1-10 µM
[4] = biological target: Zinc finger protein Aiolos (Homo sapiens) (UniProt Q9UKT9); test: Induction of IKZF3 degradation in human RS4-11 cells at 1 to 10 uM by Western blotting analysis; assay type: cell-based; conditions: dose 1-10 µM
[5] = biological target: T3, Histone deacetylase (Homo sapiens) (UniProt Q13547+O15379+Q9UBN7+Q92769+Q9UQL6+Q8WUI4+Q9BY41+Q96DB2+P56524+Q9UKV0+Q969S8); test: Inhibition of HDAC in human RS4-11 cells assessed as upregulation of histone H3 acetylation by Western blot assay; assay type: cell-based
[6] = biological target: T2, Protein deacetylase HDAC6 (Homo sapiens); test: Inhibition of HDAC6 in human RS4-11 cells assessed as effect on alpha-tubulin acetylation by Western blot assay; assay type: cell-based
Histone deacetylase 1 [7] = biological target: T1, Histone deacetylase 1; test: Inhibition of HDAC1 (unknown origin) using BocLys(acetyl)-AMC as substrate incubated for 1 hr by fluorescence plate reader analysis
Histone deacetylase 2 = Histone deacetylase 2 (Homo sapiens, UniProt Q92769); test: Inhibition of HDAC2 in human HeLa cells nuclear extract using BocLys(acetyl)-AMC as substrate incubated for 1 hr by fluorescence plate reader analysis; assay type: subcellular, Nucleus
Histone deacetylase 4 = Histone deacetylase 4 (Homo sapiens, UniProt P56524); test: Inhibition of HDAC4 in human HeLa cells nuclear extract using BocLys(acetyl)-AMC as substrate incubated for 1 hr by fluorescence plate reader analysis; assay type: subcellular, Nucleus
Histone deacetylase 9 = Histone deacetylase 9 (Homo sapiens, UniProt Q9UKV0); test: Inhibition of HDAC9 in human HeLa cells nuclear extract using BocLys(acetyl)-AMC as substrate incubated for 1 hr by fluorescence plate reader analysis; assay type: subcellular, Nucleus
[8] = biological target: T4, Protein deacetylase HDAC6 (Homo sapiens, UniProt Q9UBN7); test: Inhibition of HDAC6 (unknown origin) using BocLys(acetyl)-AMC as substrate incubated for 1 hr by fluorescence plate reader analysis
T4 sequence (Q9UBN7 whole entry): T2 sequence (whole entry)

RPMI-8226 = test: Antiproliferative activity against human RPMI-8226 cells assessed as cell growth inhibition at 5 uM incubated for 48 hrs by CCK-8 assay; assay type: functional, cell-based
U-266 [9] = test: Antiproliferative activity against human U-266 cells assessed as cell growth inhibition at 5 uM incubated for 48 hrs by CCK-8 assay; assay type: functional, cell-based
U-266 [10] = test: Antiproliferative activity against human U-266 cells assessed as cell growth inhibition incubated for 48 hrs by CCK-8 assay; assay type: functional, cell-based; conditions: U-266, 48 h
K562 = test: Antiproliferative activity against human K562 cells assessed as cell growth inhibition incubated for 48 hrs by CCK-8 assay; assay type: functional, cell-based; conditions: K562, 48 h
[11] = biological target: T3, Histone deacetylase (Homo sapiens); test: Inhibition of HDAC in human RS4-11 cells assessed as upregulation of histone H4 acetylation at 1 to 10 uM by Western blot assay; assay type: cell-based; conditions: dose 1-10 µM
[12] = biological target: T2, Protein deacetylase HDAC6 (Homo sapiens); test: Inhibition of HDAC6 in human RS4-11 cells assessed as upregulation of alpha-tubulin acetylation at 1 to 10 uM by Western blot assay; assay type: cell-based; conditions: dose 1-10 µM
RS4-11 [13] = test: Induction of apoptosis in human RS4-11 cells assessed as downregulation of Bcl-2 level; assay type: functional, cell-based; conditions: dose 1-10 µM
RS4-11 [14] = test: Induction of apoptosis in human RS4-11 cells assessed as cleaved caspase-9 release at 1 to 10 uM; assay type: functional, cell-based; conditions: dose 1-10 µM
RS4-11 [15] = test: Induction of apoptosis in human RS4-11 cells assessed as cleavage of caspase-3 at 1 to 10 uM; assay type: functional, cell-based; conditions: dose 1-10 µM
RS4-11 [16] = test: Induction of cell cycle arrest in human RS4-11 cells assessed as S phase arrest after 48 hrs by PI staining based flow cytometry analysis; assay type: functional; conditions: dose 1-10 µM
RS4-11 [17] = test: Induction of apoptosis in human RS4-11 cells after 48 hrs by Annexin V-FITC/PI staining based flow cytometry analysis; assay type: functional, cell-based; conditions: dose 1-10 µM

T1 sequence (Q13547 whole entry): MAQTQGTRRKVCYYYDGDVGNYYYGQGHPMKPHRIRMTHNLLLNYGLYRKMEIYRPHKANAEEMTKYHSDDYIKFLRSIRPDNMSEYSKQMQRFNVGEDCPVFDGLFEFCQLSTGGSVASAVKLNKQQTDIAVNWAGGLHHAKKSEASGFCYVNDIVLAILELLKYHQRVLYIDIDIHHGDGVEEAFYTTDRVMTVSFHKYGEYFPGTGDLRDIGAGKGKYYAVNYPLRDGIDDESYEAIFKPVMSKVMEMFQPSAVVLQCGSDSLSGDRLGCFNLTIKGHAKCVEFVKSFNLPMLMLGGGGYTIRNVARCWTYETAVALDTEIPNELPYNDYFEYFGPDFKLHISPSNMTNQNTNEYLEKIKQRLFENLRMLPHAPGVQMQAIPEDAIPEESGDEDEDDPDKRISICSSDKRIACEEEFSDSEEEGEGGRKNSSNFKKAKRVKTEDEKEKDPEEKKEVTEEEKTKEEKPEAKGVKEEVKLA
Sequence of Histone deacetylase 9 (Q9UKV0 whole entry): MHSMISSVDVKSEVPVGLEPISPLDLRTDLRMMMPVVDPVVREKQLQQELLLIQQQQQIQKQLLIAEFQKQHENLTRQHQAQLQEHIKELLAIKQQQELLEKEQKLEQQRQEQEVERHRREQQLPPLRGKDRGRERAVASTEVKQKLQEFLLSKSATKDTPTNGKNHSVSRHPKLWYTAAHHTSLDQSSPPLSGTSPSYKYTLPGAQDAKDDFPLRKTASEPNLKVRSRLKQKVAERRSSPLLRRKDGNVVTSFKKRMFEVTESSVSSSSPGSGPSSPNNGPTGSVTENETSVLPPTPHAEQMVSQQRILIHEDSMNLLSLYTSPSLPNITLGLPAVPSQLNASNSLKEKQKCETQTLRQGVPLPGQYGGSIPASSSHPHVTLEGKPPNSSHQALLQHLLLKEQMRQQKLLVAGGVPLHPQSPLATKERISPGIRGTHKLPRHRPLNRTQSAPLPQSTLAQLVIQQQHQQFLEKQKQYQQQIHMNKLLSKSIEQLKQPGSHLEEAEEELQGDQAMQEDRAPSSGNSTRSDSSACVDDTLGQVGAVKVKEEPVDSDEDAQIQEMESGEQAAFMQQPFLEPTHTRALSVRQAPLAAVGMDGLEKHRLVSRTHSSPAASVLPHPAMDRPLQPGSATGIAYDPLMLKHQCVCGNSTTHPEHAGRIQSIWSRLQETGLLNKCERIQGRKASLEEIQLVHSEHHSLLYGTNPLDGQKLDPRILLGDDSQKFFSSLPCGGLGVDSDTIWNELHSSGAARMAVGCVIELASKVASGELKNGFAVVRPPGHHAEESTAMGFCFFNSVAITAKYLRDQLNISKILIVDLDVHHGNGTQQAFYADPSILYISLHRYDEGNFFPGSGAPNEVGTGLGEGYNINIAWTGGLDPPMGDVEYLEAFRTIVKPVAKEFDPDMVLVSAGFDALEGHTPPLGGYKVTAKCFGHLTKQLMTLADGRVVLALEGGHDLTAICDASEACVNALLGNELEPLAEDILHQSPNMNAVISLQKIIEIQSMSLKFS
Sequence of DNA-binding protein Ikaros (Homo sapiens) (Q13422 whole entry): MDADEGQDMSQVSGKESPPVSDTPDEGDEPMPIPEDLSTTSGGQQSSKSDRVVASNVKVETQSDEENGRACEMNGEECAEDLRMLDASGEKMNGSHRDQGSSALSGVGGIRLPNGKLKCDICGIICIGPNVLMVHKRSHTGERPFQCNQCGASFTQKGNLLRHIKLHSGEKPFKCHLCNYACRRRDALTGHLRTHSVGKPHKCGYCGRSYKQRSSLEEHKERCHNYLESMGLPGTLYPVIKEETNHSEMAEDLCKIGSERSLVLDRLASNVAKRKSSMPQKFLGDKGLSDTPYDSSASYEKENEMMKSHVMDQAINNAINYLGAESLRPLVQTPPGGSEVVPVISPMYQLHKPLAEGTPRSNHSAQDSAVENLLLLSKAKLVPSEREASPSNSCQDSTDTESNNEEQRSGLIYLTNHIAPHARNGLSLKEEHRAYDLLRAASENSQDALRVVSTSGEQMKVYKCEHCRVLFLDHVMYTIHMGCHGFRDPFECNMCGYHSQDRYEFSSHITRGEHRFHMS
Sequence of Histone deacetylase 2 (Q92769 whole entry): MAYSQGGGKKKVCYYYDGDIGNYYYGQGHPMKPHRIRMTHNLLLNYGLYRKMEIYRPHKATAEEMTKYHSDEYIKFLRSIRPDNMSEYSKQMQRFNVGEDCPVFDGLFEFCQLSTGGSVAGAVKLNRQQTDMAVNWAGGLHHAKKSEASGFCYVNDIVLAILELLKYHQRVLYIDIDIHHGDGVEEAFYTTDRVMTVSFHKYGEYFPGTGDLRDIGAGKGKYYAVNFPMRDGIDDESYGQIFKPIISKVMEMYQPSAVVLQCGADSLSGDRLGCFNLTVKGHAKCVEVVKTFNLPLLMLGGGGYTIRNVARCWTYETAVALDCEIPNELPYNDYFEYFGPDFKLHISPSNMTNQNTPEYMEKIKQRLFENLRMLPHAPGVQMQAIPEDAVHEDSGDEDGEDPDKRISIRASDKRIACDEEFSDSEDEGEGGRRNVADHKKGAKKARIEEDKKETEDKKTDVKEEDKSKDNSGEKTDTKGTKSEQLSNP
Sequence of Zinc finger protein Aiolos (Homo sapiens) (Q9UKT9 whole entry): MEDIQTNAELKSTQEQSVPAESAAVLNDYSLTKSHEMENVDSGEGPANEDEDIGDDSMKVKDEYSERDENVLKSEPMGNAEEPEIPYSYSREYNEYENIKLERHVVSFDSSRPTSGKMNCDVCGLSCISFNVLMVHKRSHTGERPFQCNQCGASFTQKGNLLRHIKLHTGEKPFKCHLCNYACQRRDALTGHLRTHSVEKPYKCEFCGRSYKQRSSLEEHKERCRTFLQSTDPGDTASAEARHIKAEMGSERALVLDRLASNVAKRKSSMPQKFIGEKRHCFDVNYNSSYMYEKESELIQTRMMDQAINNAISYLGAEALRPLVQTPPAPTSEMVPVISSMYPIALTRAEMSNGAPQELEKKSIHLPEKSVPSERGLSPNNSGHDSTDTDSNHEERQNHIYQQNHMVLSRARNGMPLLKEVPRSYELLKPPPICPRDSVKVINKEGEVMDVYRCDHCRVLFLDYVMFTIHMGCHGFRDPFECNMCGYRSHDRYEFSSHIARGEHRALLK
Sequence of Histone deacetylase 4 (P56524 whole entry): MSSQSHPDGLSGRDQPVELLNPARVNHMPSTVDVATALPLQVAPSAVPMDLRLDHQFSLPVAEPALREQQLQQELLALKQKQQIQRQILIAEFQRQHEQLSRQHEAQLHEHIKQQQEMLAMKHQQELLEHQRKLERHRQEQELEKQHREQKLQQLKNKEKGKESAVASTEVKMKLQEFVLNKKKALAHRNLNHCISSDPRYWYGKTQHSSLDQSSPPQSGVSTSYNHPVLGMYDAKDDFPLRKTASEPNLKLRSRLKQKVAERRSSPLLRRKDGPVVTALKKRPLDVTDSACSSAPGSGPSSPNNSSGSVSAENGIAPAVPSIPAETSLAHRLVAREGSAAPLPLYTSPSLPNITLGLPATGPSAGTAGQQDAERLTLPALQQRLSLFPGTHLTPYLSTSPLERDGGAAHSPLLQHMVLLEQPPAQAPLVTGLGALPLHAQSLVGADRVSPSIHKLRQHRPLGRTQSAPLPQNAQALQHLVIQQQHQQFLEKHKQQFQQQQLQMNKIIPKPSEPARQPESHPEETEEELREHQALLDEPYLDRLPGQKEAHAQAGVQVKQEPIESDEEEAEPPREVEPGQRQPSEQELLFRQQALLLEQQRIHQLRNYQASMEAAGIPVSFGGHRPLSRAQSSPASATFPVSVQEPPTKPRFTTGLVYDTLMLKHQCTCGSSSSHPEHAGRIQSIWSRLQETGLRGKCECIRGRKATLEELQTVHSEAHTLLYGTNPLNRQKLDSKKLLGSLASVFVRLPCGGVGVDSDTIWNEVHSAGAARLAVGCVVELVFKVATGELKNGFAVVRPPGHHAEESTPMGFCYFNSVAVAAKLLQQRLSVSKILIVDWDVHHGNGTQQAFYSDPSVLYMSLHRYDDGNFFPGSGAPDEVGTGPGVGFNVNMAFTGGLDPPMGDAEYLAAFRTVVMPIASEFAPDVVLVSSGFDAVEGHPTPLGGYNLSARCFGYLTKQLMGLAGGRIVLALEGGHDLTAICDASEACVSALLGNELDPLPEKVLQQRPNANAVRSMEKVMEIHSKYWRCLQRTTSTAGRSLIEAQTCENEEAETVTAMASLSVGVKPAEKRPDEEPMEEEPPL

| Activity (Histone deacetylase 1 [1]) | Activity [2] | Activity [3] | Activity [4] | inhibition [5] | Activity [6] | pIC50 (Histone deacetylase 1 [7]) | pIC50 (Histone deacetylase 2) | pIC50 (Histone deacetylase 4) | pIC50 (Histone deacetylase 9) | pIC50 [8] | pIC50 (K562) | Activity [11] | Activity [12] | Structure (SMILES) | Activity (RPMI-8226) | Activity (U-266 [9]) | pIC50 (U-266 [10]) | Activity (RS4-11 [13]) | Activity (RS4-11 [14]) | Activity (RS4-11 [15]) | other results |
| --- | --- | --- | --- | --- | --- | --- | --- | --- | --- | --- | --- | --- | --- | --- | --- | --- | --- | --- | --- | --- | --- |
| inactive | inactive | Active | Active | Active | inactive | 6.26 | 6.42 | < 5.70 | < 5.70 | < 5.70 | 5.26 | Active | inactive | Nc1ccccc1NC(=O)c1ccc(CNc2cccc3c2C(=O)N(C2CCC(=O)NC2=O)C3=O)cc1 (centres undefined) | Active | Active | 5.31 | Dose-Dependent Effect | Active | Active | Activity (RS4-11 [16]): Dose-Dependent Effect; Activity (RS4-11 [17]): Dose-Dependent Effect |
| inactive | inactive | Active | Active | Active | inactive | 6.34 | 6.36 | < 5.70 | < 5.70 | < 5.70 | 5.27 | Active | inactive | Nc1cc(F)ccc1NC(=O)c1ccc(CNc2cccc3c2C(=O)N(C2CCC(=O)NC2=O)C3=O)cc1 (centres undefined) | Active | Active | 5.53 | Dose-Dependent Effect | Active | Active | Activity (RS4-11 [16]): Dose-Dependent Effect; Activity (RS4-11 [17]): Dose-Dependent Effect |
